# Key:
# [1] = Inhibition of ACC1 (unknown origin); set-up: species or system Homo sapiens
# [2] = Inhibition of rat CPT2
# Autotaxin = Autotaxin (Homo sapiens, UniProt Q13822)
# Description: Inhibition of ATX (unknown origin)
# [3] = Inhibition of CPT1 (unknown origin); set-up: species or system Homo sapiens
# [4] = Binding affinity to rat liver mitochondria CPT1 assessed as inhibition constant measured for 6 mins by Liquid scintillation counting method
# MCF7 = assay: Antiproliferative activity against human MCF7 cells assessed as reduction in cell growth; assay type: functional, cell-based
# [5] = molecular target: T1, Diacylglycerol O-acyltransferase 2 (Homo sapiens, UniProt Q96PD7); assay: Inhibition of DGAT2 (unknown origin)
# T1 sequence (Q96PD7 whole entry): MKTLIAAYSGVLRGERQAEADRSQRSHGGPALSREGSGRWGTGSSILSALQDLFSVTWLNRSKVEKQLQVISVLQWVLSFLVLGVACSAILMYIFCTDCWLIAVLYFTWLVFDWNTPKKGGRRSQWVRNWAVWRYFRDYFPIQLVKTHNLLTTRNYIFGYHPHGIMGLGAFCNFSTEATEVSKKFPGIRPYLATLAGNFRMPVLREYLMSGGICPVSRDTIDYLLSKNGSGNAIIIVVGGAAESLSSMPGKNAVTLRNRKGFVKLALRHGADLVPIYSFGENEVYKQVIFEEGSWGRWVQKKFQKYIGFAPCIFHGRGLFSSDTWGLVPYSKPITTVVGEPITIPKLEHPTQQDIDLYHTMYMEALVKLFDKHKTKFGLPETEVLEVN
# Bile acid receptor = molecular target: T2, Bile acid receptor (Homo sapiens, UniProt Q96RI1); assay: Agonist activity at FXR (unknown origin)
# T2 sequence (Q96RI1 whole entry): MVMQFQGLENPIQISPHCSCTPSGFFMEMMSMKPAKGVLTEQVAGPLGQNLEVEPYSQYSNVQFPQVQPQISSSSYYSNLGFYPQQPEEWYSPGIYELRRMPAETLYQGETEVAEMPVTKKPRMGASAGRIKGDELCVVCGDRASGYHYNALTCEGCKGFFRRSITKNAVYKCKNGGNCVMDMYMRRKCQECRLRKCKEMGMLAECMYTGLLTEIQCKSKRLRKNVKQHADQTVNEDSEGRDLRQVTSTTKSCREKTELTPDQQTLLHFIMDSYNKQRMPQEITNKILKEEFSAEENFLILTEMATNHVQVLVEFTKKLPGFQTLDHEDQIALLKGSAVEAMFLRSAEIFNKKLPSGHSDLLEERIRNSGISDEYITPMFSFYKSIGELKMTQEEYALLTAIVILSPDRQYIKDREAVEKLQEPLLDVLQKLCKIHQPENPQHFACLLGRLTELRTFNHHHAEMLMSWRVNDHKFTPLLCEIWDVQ
# Platelet glycoprotein 4 = Platelet glycoprotein 4 (Homo sapiens, UniProt P16671); assay: Inhibition of N-terminal Flag-tagged human CD36
# A549 = assay: Antiproliferative activity against human A549 cells; assay type: functional, cell-based
# SK-OV-3 = assay: Antiproliferative activity against human SK-OV-3 cells; assay type: functional, cell-based
# PC-3 = assay: Antiproliferative activity against human PC-3 cells; assay type: functional, cell-based
# Chain of Platelet glycoprotein 4 (P16671 whole entry): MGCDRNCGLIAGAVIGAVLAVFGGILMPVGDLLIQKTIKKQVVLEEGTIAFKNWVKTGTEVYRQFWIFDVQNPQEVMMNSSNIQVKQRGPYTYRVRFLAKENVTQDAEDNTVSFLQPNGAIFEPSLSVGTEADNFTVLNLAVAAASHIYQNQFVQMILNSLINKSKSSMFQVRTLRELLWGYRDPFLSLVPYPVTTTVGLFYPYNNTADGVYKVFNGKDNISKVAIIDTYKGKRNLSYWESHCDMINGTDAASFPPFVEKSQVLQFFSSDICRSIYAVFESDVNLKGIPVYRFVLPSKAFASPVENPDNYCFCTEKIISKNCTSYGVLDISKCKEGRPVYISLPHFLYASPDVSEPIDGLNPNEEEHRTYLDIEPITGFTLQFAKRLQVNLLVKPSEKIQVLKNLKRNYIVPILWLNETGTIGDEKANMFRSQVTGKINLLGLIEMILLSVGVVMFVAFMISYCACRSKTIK
smiles,measurement,setting,value
CC(=O)N1CCC(C(=O)N2CCC(N3CCN(C(=O)c4cc(-c5ccc(C)cc5)nc(-c5ccc(C)cc5)c4)CC3)CC2)CC1,IC50,[1],76 nM
O=C(c1c2ccccc2cc2ccccc12)N1CCN(C2CCN(C(=O)N3CCOCC3)CC2)CC1,IC50,[1],239 nM
CCCCCCCCCCCCCCNC(=O)N[C@H](CC(=O)[O-])C[N+](C)(C)C,IC50,[2],240 nM
CCCCCCCCCCCCCC(=O)Nc1ccc(CP(=O)(O)O)cc1,IC50,Autotaxin,5.6 nM
O=C(c1c2ccccc2cc2ccccc12)N1CCC(N2CCC[C@@H](C(=O)N3CCOCC3)C2)CC1,IC50,[1],116 nM
COc1ccc(CN2CCN(CCCSc3cc(C(C)(C)C)c(O)c(C(C)(C)C)c3)CC2)c(OC)c1OC,IC50,[3],50800 nM
Cc1nc(-c2cc(C(=O)N3CCC(c4ccc(C#N)cc4)CC3)c(C)cc2C2CCC2)n[nH]1,IC50,[1],40 nM
Cc1cc(C)c(-c2[nH]nc(C)c2C)cc1C(=O)N1CC(c2ccc(C#N)cc2)C1,IC50,[1],20 nM
COc1ccc(-c2ccccc2)cc1NS(=O)(=O)c1cc(Cl)cc(Cl)c1O,IC50,[3],130 nM
CCOC(=O)c1sc2c(c1C)c(=O)n(CCO)c(=O)n2CCc1ccccc1,IC50,[1],3.9 nM
C=C1C(=O)O[C@H](CCCCCCCC)[C@H]1C(=O)O,IC50,[1],460 nM
COc1cc(C(=O)N2CCC3(CC2)CC(=O)c2cc(-c4cncc(C(=O)O)c4)ccc2O3)cc2c1c(C)cn2C1CC1,IC50,[1],3 nM
CCCCCCCCCCCCCCC[C@@]1(O)C[N+](C)(C)C[C@@H](CC(=O)[O-])O1,Ki,[4],4.2 µM
COC(=O)c1cc(Cl)c(O)c(S(=O)(=O)Nc2cc(-c3ccccc3)c(F)cc2F)c1,IC50,[3],44 nM
COCc1nc(C(F)(F)F)[nH]c1-c1cc(C(=O)N2CC(c3ccc(C#N)cc3)C2)c(C)cc1C,IC50,[1],40 nM
CCCCCCOc1cccc(OCCCCNC(=O)N[C@@H](CC(=O)O)CN(C)C)c1,IC50,[3],44 nM
Cc1sc2ncnc(NC3CCN(Cc4ccccc4)C3)c2c1C (stereo unspecified),IC50,MCF7,0.3 nM
O=C(NC1(C(=O)N[C@@H]2CC(=O)c3ccccc3N(Cc3cc(C(F)(F)F)cc(C(F)(F)F)c3)C2=O)CC1)c1ccc(F)cc1,IC50,[5],> 75.5 nM
O=C1Nc2ccccc2-c2cc(c(F)cc2F)NS(=O)(=O)c2cc1cc(Cl)c2O,IC50,[3],69.7 nM
CC(C)N(C(=O)n1nnn(-c2c(F)cccc2F)c1=O)c1ccc(C(=O)O)cc1Oc1ccccc1,IC50,MCF7,19 nM
CCc1nc2c(C)cc(-c3ccc(CN(CCO)CCO)cc3)cn2c1NC(=O)NCc1ccc(Cl)cc1,IC50,Autotaxin,3.98 nM
Cc1cc(-c2nc3ccc(C(=O)O)cc3n2C)ccc1OCc1c(-c2c(Cl)cccc2Cl)noc1C(C)C,EC50,Bile acid receptor,13.4 nM
CCCCCCCC/C=C\CCCCCCCC(=O)ON1C(=O)CC(S(=O)(=O)O)C1=O (stereo unspecified),IC50,Platelet glycoprotein 4,4 µM
CC(C)(C)OC(=O)NC1(C(=O)N[C@@H]2CC(=O)c3ccccc3N(Cc3cc(C(F)(F)F)cc(C(F)(F)F)c3)C2=O)CC1,IC50,[5],> 75.5 nM
CC(C)(CCCCCC(O)CCCCCC(C)(C)C(=O)O)C(=O)O [BEMPEDOIC ACID],IC50,A549,24 µM
same,IC50,SK-OV-3,53 µM
same,IC50,PC-3,26 µM
COc1ccccc1[C@H](Cn1c(=O)n(C(C)(C)C(=O)O)c(=O)c2c(C)c(-c3ncco3)sc21)OC1CCOCC1 [FIRSOCOSTAT],IC50,[1],2.1 nM
CCCCCCCCCCC[C@@H](C[C@@H]1OC(=O)[C@H]1CCCCCC)OC(=O)[C@H](CC(C)C)NC=O [ORLISTAT],IC50,MCF7,250 nM
COc1ccc(CN2CCNCC2)c(OC)c1OC [TRIMETAZIDINE],IC50,[3],759000 nM
C[C@H](CCC(=O)O)[C@H]1CC[C@H]2[C@@H]3[C@@H](O)C[C@@H]4C[C@H](O)CC[C@]4(C)[C@H]3CC[C@]12C [URSODIOL],IC50,Autotaxin,2800 nM

# Source: ChEMBL document CHEMBL6087471, “A Collection of Novel Antitumor Agents That Regulate Lipid Metabolism in the Tumor Microenvironment” (J Med Chem, 2025)
